The conditions of series [1]: dogs; cited from earlier work.
The conditions of series [2]: drug without micelles; cited from earlier work.
Series [3] can be described thus: % drug loading of PEG-b-PLA micelles (wt drug(s)/wt polymer). It is filed as physicochemical. The note with it: all drugs of the SDM or MDM together, PEG-b-PLA (4.2K:1.9K) micelles. On the procedure: Drug(s) to polymer w/w percent was calculated for SDM and MDM. PEG-b-PLA micelles were freeze dried, weighed and the amount of drug(s) in the freeze dried sample was quantified by HPLC. The drug w/w percent was calculated as the mass of the drug(s) to the mass of polymer in the freeze dried sample multiplied by 100.

Series [4] in a line: Physical stability / drug loss from PEG-b-PLA micelles after 24 hours (turbidity, HPLC). The settings on record: for % w/w drug(s) left @ 24 hr / initial drug level in water / drug level @ 24 hr in water: PEG-b-PLA micelles. It is filed as physicochemical. Here is the method:
Turbidity measurements were used to evaluate the physical stability of drug-loaded PEG-b-PLA micelles. A CARY 50 BIO UV-Visible spectrophotometer equipped with dip probe was used to measure turbidity. Micellar solutions were diluted six times, for a final concentration of PEG-b-PLA of 5 mg/mL, with DD H2O and filtered through 0.45 μm filter. […] Each measurement was performed in triplicate.

Series [5] is described as follows: In vitro drug release from PEG-b-PLA micelles (dialysis method). The format is physicochemical. The settings on record: 12.5 mM PBS, pH=7.4, 37° C. On the procedure: (§1) SDMs or MDMs were prepared and characterized as described above. Post micelle preparation each sample was diluted with DD H2O, to yield about 0.10 mg/mL of each drug. A volume of 2.5 mL of the prepared sample was loaded into a 3 mL Slide-A-Lyzer® (Thermo Scientific Inc.) dialysis cassette with a MWCO of 20,000 g/mol. Four cassettes were used in each experiment. The cassettes were placed in 2.0 L of buffer which was changed every 3 hours to ensure sink conditions for drug(s) and polymer. A sample of 100 μL was drawn from each cassette at various sampling time intervals and then replaced with 100 μL of fresh buffer. […] The amount of drug(s) in each sample was quantified by HPLC as described above.
Statistical analysis was performed using one-way ANOVA at 5% significance level combined with Tukey's Multiple Comparison Test or t-test at 5% significance level. Curve-fitting analysis using one phase exponential association was used to calculate the half-life (t1/2) of drug in in vitro drug release experiments. Both analyses were performed using GraphPad Prism version 5.00 for Windows, Graph-Pad Software, San Diego Calif. USA, www.graphpad.com.
as §1, with “Post-micelle preparation,” for “Post micelle preparation”, “yield samples of” for “yield”, “reverse phase HPLC.” for “HPLC as described above.”

A short description of series [6]: Drug solubilization by PEG-b-PLA micelles (drug level in water, reverse phase HPLC). The note with it: SDM or MDM, PEG-b-PLA (4.2K:1.9K) micelles.
Description: The drug-polymer mixture was dissolved in 0.50 mL acetonitrile (ACN). The ACN was removed at 60° C. under reduced pressure on a rotary evaporator resulting in the formation of a homogenous film, The drug-polymer film was rehydrated with 0.50 mL of DD H2O at 60° C. with gentle agitation resulting in a clear solution of drug-loaded PEG-b-PLA micelles. The micellar solution was filtered using a 0.45 μm filter, and the micelles were characterized in terms of size and loading by Dynamic Light Scattering (DLS) and HPLC respectively.
MDMS were prepared similarly to the SDMs by mixing 2.0 mg of each drug with 15 mg of the polymer. The procedure for the preparation and characterization of these micelles was identical to the SDMs.
The content of drug loaded in PEG-b-PLA micelles was quantified by reverse phase HPLC. The HPLC system used for quantifying was a Shimadzu prominence HPLC system (Shimadzu, JP), consisting of a LC-20AT pump, SIL-20AC HT autosampler, CTO-20AC column oven and a SPD-M20A diode array detector. A sample of 10 μL was injected into a Zorbax SB-C8 Rapid Resolution cartridge (4.6×75 mm, 3.5 micron, Agilent). The column temperature was maintained at 40° C. throughout the run. Two HPLC methods were developed to quantify the amount of the drug(s) loaded in PEG-b-PLA micelles.
The mobile phase was an isocratic mixture of 45% ACN and 54% aqueous phase containing 0.1% phosphoric acid and 1% methanol in DD H2O.
The mobile phase was a gradient mixture of ACN and aqueous phase containing 0.1% phosphoric acid and 1% methanol in DD H2O. […] With both HPLC methods samples were injected twice and reproducible and rapid separation of the drugs was achieved.
Mn of PEG and PLA of PEG-b-PLA was 4,200 and 1,900 g/mol, respectively (APC Inc., UK). ACN was removed by heating at 60° C. and reduced pressure. The resultant dry polymer film containing anti-cancer agent(s) was dissolved by addition of water (0.50 mL) at 60° C. with gentle agitation.
The resultant dry PEG-b-PLA film containing drugs was dissolved by the addition of water (0.50 mL) at 60° C. with gentle agitation.
Series [7] in a line: Dynamic light scattering size of SDM and MDM. The format is physicochemical. The note with it: DLS, drug-loaded SDM or MDM. Here is the method: The drug-loaded micellar solutions were diluted 20 times with DD H2O and the samples was equilibrated for 2 min at 25° C. before the measurements. […] The hydrodynamic diameter of PEG-b-PLA micelles was calculated based on the Stokes-Einstein equation. Correlation function was curve fitted by cumulant method to calculate mean size and polydispersion index (PDI). All measurements were repeated three times, and volume-weighted particle sizes were presented as the average diameter with standard deviation.

For series [8], the system named is 4T1 murine breast cancer cells. Nature of the series: In vitro cytotoxicity, resazurin assay, and combination index. The note with it: drug(s) in SDM or MDM, 72 hours, unit inferred. The format is cell-based. Here is the method:
MCF-7 human breast cancer cells were cultured in DMEM medium while 4T1 murine breast cancer cells, A549 human non-small cell lung cancer cells, and LS180 human colon cancer cells were cultured in RPMI1640 medium. Both media were supplemented with 10% fetal bovine serum (FBS) with antibiotics under 5% CO2 and 37° C. in an incubator. […] Free drugs were dissolved in DMSO, and drug-loaded PEG-b-PLA micelles were in deionized water. […] […] The metabolic conversion of resazurin dye by each viable cancer cell was quantified using a fluorescence cell plate reader (SpectraMax M2, Molecular Devices, USA) to estimate cell viability. […] IC50 values of free drugs and drug-loaded PEG-b-PLA micelles were calculated based on median-effect equation using Compusyn software (ver. 1.0).
(§2) CI values were obtained at IC50 values for 2- or 3-drug combinations. CI<1, C=1, and CI>1 were used as criteria to determine whether 2- or 3-drug combinations are synergistic, additive, and antagonistic, respectively (FIGS. 13-20).

Series [9] relates to A549 human non-small cell lung cancer cells. The description is as above. The format is cell-based. The note with it: drug(s) in SDM or MDM, 72 hours, unit inferred. Here is the method:
(§3) MCF-7 human breast cancer cells were cultured in DMEM medium while 4T1 murine breast cancer cells, A549 human non-small cell lung cancer cells, and LS180 human colon cancer cells were cultured in RPMI1640 medium. Both media were supplemented with 10% fetal bovine serum (FBS) with antibiotics under 5% CO2 and 37° C. in an incubator. […] Free drugs were dissolved in DMSO, and drug-loaded PEG-b-PLA micelles were in deionized water. The samples were diluted with cell culture media to make 0.10, 1.0, 10, 100 and 1000 nM in 96 well plates. […] The metabolic conversion of resazurin dye by each viable cancer cell was quantified using a fluorescence cell plate reader (SpectraMax M2, Molecular Devices, USA) to estimate cell viability. […] IC50 values of free drugs and drug-loaded PEG-b-PLA micelles were calculated based on median-effect equation using Compusyn software (ver. 1.0).
as §2

Series [10] relates to MCF-7 human breast cancer cells. Described as above. The format is cell-based. The note with it: MCF-7, drug(s) in SDM or MDM (PEG-b-PLA micelles), 72 hours, nM printed in b258 only, PTX/17-AAG 3.2:1, RAP/17-AAG 1:1, RAP/PTX 1:1, RAP/PTX/17-AAG 1:5:1. Here is the method:
as §3, §2

Series [11] is described as follows: physchem. The format is physicochemical. Here is the method:
The mixture is mixed and sonicated for five minutes. The solvent is then removed by rotoevaporation at approximately 60° C. to provide a film. Hot (˜60° C.) deionized water is added to the oil and the solution is allowed to cool to ˜23° C. The solution is then centrifuged to remove the sediment in a 1.5 mL microtube, at ˜13,200 rpm for 1 minute. The supernatant is collected and filtered through a 0.2 μm PTFE filter.
The resulting solution was dialyzed against H2O in 3500 MWCO tubing (SpectraPor). Resulting micelles were centrifuged at 5000g's for 10 minutes to precipitate unincorporated drug. […] Micelle solutions were concentrated by rotary evaporation under reduced pressure at room temperature, followed by centrifugation (5000g's for 10 minutes).

Series [12] is classed as in vivo, rats. The settings on record: micelle formulation compared to the standard vehicle that employs CrEL.
Series [13] is described as follows: Solubilization with Poloxamer F68 (reference example). It is filed as physicochemical. The note with it: analyte rapamycin. From the text:
Several polymers that form micelles with drugs were surveyed for solubilizing a paclitaxel-rapamycin-17-AAG drug combination. […] For example, the PEG-PPG-PEG triblock polymer Poloxamer F68 is useful to solubilize many hydrophobic compounds such as resveratrol, a hydrophobic compound with reported anticancer activity. […] In these attempts, the micelles coagulated and deteriorated in aqueous solutions.
Results for forming micelles of the paclitaxel-rapamcyin-17-AAG combination with Poloxamer F68: […]

Where [14] appears, read: PTX/17-AAG 4.7:1, RAP/17-AAG 1:1, RAP/PTX 1:1, RAP/PTX/17-AAG 1:5:1.
[15] abbreviates: PTX/17-AAG 4.7:1, RAP/17-AAG 1:1, RAP/PTX 1:1, RAP/PTX/17-AAG 1:5:1, read-out: IC50.

In brackets after ≈: the same amount, converted by molar mass. Several values for one entry are separate records, joined by “and”; a condition that tells them apart may be missing. Equal values may be shown once. Read-outs that look alike come from different tables or passages of the source. Some results are limits rather than exact numbers.

In the case of `CO[C@H]1/C=C\C=C(/C)C(=O)NC2=CC(=O)C(NCCN(C)C)=C(C[C@@H](C)C[C@H](OC)[C@H](O)[C@@H](C)/C=C(\C)[C@@H]1OC(N)=O)C2=O` [17-DMAG, 17-dimethylamino-ethylamino-17-demethoxygeldanamycin], the maximum tolerated dose in series [1] is 8 mg/m^2/day.
For the molecule `CC(=O)O[C@@]12CO[C@@H]1C[C@H](O)[C@@]1(C)C(=O)[C@H](O)C3=C(C)[C@@H](OC(=O)[C@H](O)[C@@H](NC(=O)OC(C)(C)C)c4ccccc4)C[C@@](O)([C@@H](OC(=O)c4ccccc4)[C@H]21)C3(C)C` [Docetaxel], the “intrinsic solubility in water” value in series [2] is 5.5 µg/mL. Moreover, the “% drug loading (wt. drug(s)/wt. polymer)” value in series [3] was 14.2 ± 1.5% and 11.5 ± 0.5%. Also, the “% drug loading (wt. drug(s)/wt. polymer)” value in [3] (listed as DCTX) was 11.5%. The “drug precipitated at 24 hours” value in series [4] (SDM, HPLC data) was around 73%. In addition, in series [4] (analyte docetaxel), the “% w/w drug(s) left @ 24 hr” value is given as 26.8 ± 3.3 % w/w, the “initial drug level in water” value turned out to be 4.27 ± 0.44 mg/mL and the “drug level @ 24 hr in water” value is 1140 ± 30 µg/mL. Moreover, the “time the micelles were physically stable” value in series [4] (turbidity, ambient temperature) is given as “approximately 6 hours”. In series [5] (release of docetaxel), this molecule displayed a first-order rate constant of 0.379 h⁻¹. In addition, the “drug level in water” value in [6] (analyte docetaxel) came to 4270 ± 440 µg/mL. For the same molecule, in series [6] (analyte docetaxel, listed as DCTX), the “drug level in water” value was 4270 µg/mL. The same molecule came in with a PEG-b-PLA micelle diameter in series [7] of 37.3 ± 1.7 nm.
On to `C=CCNC1=C2C[C@@H](C)C[C@H](OC)[C@H](O)[C@@H](C)/C=C(\C)[C@H](OC(N)=O)[C@@H](OC)/C=C\C=C(/C)C(=O)NC(=CC1=O)C2=O` [17-AAG, 17-allylamino-17-demethoxygeldanamycin], for which the IC50 in [8] (setting [14]) came to 118 ± 10 nM; in series [9] (setting [14]), 771 ± 163 nM; in series [10] it was 266 ± 48 nM. The “% drug loading (wt. drug(s)/wt. polymer)” value in [3] is 13.0 ± 0.9% and 11.3 ± 0.3%. In addition, the “initial drug level in water” value in series [4] (analyte 17-AAG) is 3.90 ± 0.28 mg/mL. The “drug level @ 24 hr in water” value in [4] (analyte 17-AAG) is 3840 ± 180 µg/mL. Further, the first-order rate constant in [5] (release of 17-AAG) worked out at 0.525 h⁻¹. In series [1], the maximum tolerated dose is on record as 100-200 mg/m^2/day. For the same molecule, the “drug level in water” value in series [6] (analyte 17-AAG) was 3900 ± 280 µg/mL. In series [11] (PEG-PLA (12:6 kDa) micelles), this molecule yielded a 17-AAG solubilized of 1.5 mg/mL. The molecule also showed a solubility in series [11] (PEG-PLA (12:6 kDa) micelles in water, aqueous with cosolvent or surfactant or cyclodextrin) of around 1500 µg/mL (≈ 2560 µM). The “Renal clearance (CLrenal)” value in [12] is given as “increased”. Further, the “hepatic clearance (CLhepatic)” value in series [12] was “decreased”. Moreover, the PEG-b-PLA micelle diameter in [7] is listed as 39.3 ± 2.9 nm.
`CO[C@H]1C[C@@H]2CC[C@@H](C)[C@@](O)(O2)C(=O)C(=O)N2CCCC[C@H]2C(=O)O[C@H]([C@H](C)C[C@@H]2CC[C@@H](O)[C@H](OC)C2)CC(=O)[C@H](C)/C=C(\C)[C@@H](O)[C@@H](OC)C(=O)[C@H](C)C[C@H](C)/C=C/C=C/C=C/1C` [Rapamycin]: the IC50 in series [8] (setting [15]) is above 100000 nM. Further, the 50% inhibitory concentration (IC50) in series [9] (setting [15]) came to 590 ± 110 nM. Also, the IC50 in [10] (read-out: IC50) was determined as 255 ± 37 nM. Moreover, the “% drug loading (wt. drug(s)/wt. polymer)” value in [3] was 6.6 ± 1.3%. Moreover, in series [4] (analyte rapamycin), the “% w/w drug(s) left @ 24 hr” value turned out to be 91.5 ± 0.2 % w/w, the “initial drug level in water” value worked out at 1.84 ± 0.26 mg/mL and the “drug level @ 24 hr in water” value is 1680 ± 230 µg/mL. For the same molecule, in series [5] (release of rapamycin), the first-order rate constant is 0.100 h⁻¹ and 0.081 h⁻¹. Besides, in [6] (analyte rapamycin), the “drug level in water” value was determined as 1840 ± 260 µg/mL. Also, the PEG-b-PLA micelle diameter in series [7] is 36.9 ± 1.3 nm. Further, in [13], the loading into micelles came out at 4%.

Usually IC50 stands for the midpoint of a concentration-inhibition curve. Broadly, the solubility is how much of the substance goes into solution per volume. Read a low solubility as a poorly soluble substance.

The record behind these values is patent US8383136B2, “Micelle encapsulation of therapeutic agents” (Wisconsin Alumni Research Foundation, priority 2009, dated 2013).
